{"source": "patent US12048307B2", "about": "“Compositions, methods and uses for cleaning, disinfecting and/or sterilizing” (Collidion, Inc., priority 2017, dated 2024)", "test_system": "Bacillus subtilis (ATCC #19659) spores", "test": "B. subtilis spore viability assay, 15 minutes treatment, with or without serum", "assay_type": "cell-based", "conditions": "spore suspension about 1×10^6 cfu/mL, 48 hours incubation at 37° C. on TSA, >500 = too many colonies to count", "description": "To prepare stock cultures of pathogenic spores, 10 mL nutrient broth was inoculated using a stock culture of Bacillus subtilis (ATCC #19659) and incubated on an orbital shaker for 24±2 hours at approximately 150 rpm at 36±1° C. This culture was used to inoculate Tryptic Soy Agar (TSA) plates. Each plate was inoculated with 500 μL of broth culture and the inoculum spread with a sterile L spreader. In addition, the purity of this culture was verified by streaking on TSA plates and incubating plates at 36±1° C. for 24±2 hours. Each plate was wrapped with parafilm. inverted and incubated for 12-14 days at 36±1° C. Following incubation, spores were harvested by adding 10 mL cold sterile water to each plate, the growth removed from the plates using a spreader, and the resulting suspensions were transferred into 15 mL sterile conical tubes. The suspensions were centrifuged at 5,000 rpm (4,500×g) for approximately 10 minutes at room temperature. After removal of the supernatant, the spore pellet was washed by re-suspending pellet with 10 mL cold sterile water and centrifuged at 5,000 rpm (4,500×g) for approximately 10 minutes. This washing step was repeated two more times. The spore pellet was re-suspended with 10 mL sterile water and the spore suspension was stored at 2-5° C. until needed. The spore suspension was stained using stain and the spores examined under the microscope to assess quality of the spores. A minimum of five fields were examined and the ratio of the spores to vegetative cells (or sporangia) was determined. Percentage of spores versus vegetative cells were about 95% spores. Spore titer was determined by preparing serial dilutions, plating the dilutions on TSA plates, incubating plates for 24±2 hours at 36±1° C., and counting the number of colonies formed to determine the titer. The test culture was standardized by using phosphate buffer to achieve a final test culture microbe population of 1.0×10^6 cfu/mL.\nAssay samples were set up with or without serum, such as, e.g., Tryptic Soy Broth (TSB) or Bovine Serum (BS). The purpose of the serum was to better simulate the organic load of blood and other tissue which tends to deactivate an antimicrobial agent. In general, assays were conducted by first incubating a pathogen spore sample with a composition disclosed herein for a specified treatment time period, optionally with serum, and then culturing the sample on growth medium to assess spore viability.\nIn one series of experiments, assays where the samples were treated with serum were set up to contain 100 μL of pathogen spore suspension (containing about 1×10^6 cfu/mL), 50 μL of serum, and 850 μL of a composition described in Example 1. […] The inoculated plates were then incubated at 37° C. for 48 hours and the number of bacterial colonies, if any, counted. […]", "data": [{"compound": "hypochlorous acid [97 ppm HOCl]", "values": [{"measurement": "Count (number of bacterial colonies), 5% Serum", "value": ">500"}, {"measurement": "Count (number of bacterial colonies), No Serum", "value": 0}]}, {"compound": "O=CCCCC=O", "note": "[0.5% Glutaraldehyde, Glutaraldehyde]", "values": [{"measurement": "Count (number of bacterial colonies), 5% Serum", "value": ">500"}, {"measurement": "Count (number of bacterial colonies), No Serum", "value": ">500"}]}]}
